The text below walks through data of PMC5323270 (SLAS discovery, 2016).

In assay [1] the test system is M. tuberculosis H37Rv. Kind of assay: microbe, parasite or virus in culture. It counts as cell-based. The note with it: Mycobacterium tuberculosis, read-out: MIC90 MABA.
Assay [2] concerns M. tuberculosis H37Rv. Put plainly: microbe, parasite or virus in culture. It counts as cell-based. Conditions: Mycobacterium tuberculosis, read-out: MIC90 LORA.

Values after ≈ are worked out from the molar mass of the structure shown. Where two headings read alike, the source gives them in different places.

For the compound `CO[C@H]1/C=C/O[C@@]2(C)Oc3c(C)c(O)c4c(O)c(c(/C=N/N5CCN(C)CC5)c(O)c4c3C2=O)NC(=O)/C(C)=C\C=C\[C@H](C)[C@H](O)[C@@H](C)[C@@H](O)[C@@H](C)[C@H](OC(C)=O)[C@@H]1C` [Rifampin (RMP), Rifampin], the MIC90 stood at 0.13 µM (≈ 0.107 µg/mL) in the assay on M. tuberculosis H37Rv [1] and 0.46 µM (≈ 0.379 µg/mL) with M. tuberculosis H37Rv [2].
